The results in this text go back to patent US12421249B2, “Inhibitors of APOL1 and methods of using same” (Vertex Pharmaceuticals Incorporated, priority 2020, dated 2025).

The assay has as its target T1, APOL1 (Homo sapiens, UniProt O14791).
T1 sequence (O14791 1-398 S342G/I384M): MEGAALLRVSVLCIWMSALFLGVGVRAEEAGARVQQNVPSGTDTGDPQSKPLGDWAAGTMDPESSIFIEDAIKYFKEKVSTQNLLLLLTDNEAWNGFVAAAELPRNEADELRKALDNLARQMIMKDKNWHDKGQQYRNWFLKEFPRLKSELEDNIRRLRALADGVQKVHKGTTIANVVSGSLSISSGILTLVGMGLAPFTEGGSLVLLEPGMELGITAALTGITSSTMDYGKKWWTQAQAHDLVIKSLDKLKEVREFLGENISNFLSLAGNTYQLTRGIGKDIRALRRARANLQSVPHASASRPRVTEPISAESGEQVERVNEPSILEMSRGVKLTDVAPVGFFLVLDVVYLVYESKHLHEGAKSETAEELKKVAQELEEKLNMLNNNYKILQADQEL
Briefly: Multi-Tox Assay (MultiTox-Fluor Multiplex Cytotoxicity Assay in tet-inducible APOL1 T-REx-HEK293 cells; Table 46 does not say which APOL1 variant G0/G1/G2). The settings on record: APOL1 variant not given; for IC50: IP50 = IC50 for cell proliferation. Type of assay: cell-based.

Each structure is given as a SMILES string.

As for `C[C@@H](CO)CCn1cc([C@@H]2CC3(C[C@H](C)N2)OCC(F)(F)c2cc(Cl)sc23)nn1` (stereo in doubt) [Compound 338], the IC90 is less than 50 nM, the “Multi-Tox Assay Max Activity (%)” value turned out to be 99.0% and the IC50 is less than 50 nM.

As to `C#C[C@@H]1C[C@]2(C[C@H](C)N1)OCCc1cc(Cl)sc12` [Compound 221, (2S,4S,6S)-2′-chloro-2-ethynyl-6-methyl-4′,5′-dihydrospiro[piperidine-4,7′-thieno[2,3-c]pyran]], the IC50 is less than 50 nM.

`C#C[C@@H]1C[C@]2(C[C@H](C)N1)OC[C@@H](O)c1cc(Cl)sc12` [Compound 222, (2′S,4S,6′S,7S)-2-chloro-2′-ethynyl-6′-methyl-spiro[4,5-dihydrothieno[2,3-c]pyran-7,4′-piperidine]-4-ol]: the IC50 lay within 50 to 500 nM. On the same count and under the same terms, the result for `C#C[C@@H]1C[C@]2(C[C@H](C)N1)OCC(F)(F)c1cc(Cl)sc12` [Compound 223, (2′S,6′S,7S)-2-chloro-2′-ethynyl-4,4-difluoro-6′-methyl-spiro[5H-thieno[2,3-c]pyran-7,4′-piperidine]] reads more than 500 nM; that for `C[C@H]1C[C@@]2(C[C@@H](c3cn(Cc4ccc(CO)cc4)nn3)N1)OC[C@@H](O)c1cc(Cl)sc12` [Compound 224, (2′S,4S,6′S,7S)-2-chloro-2′-[1-[[4-(hydroxymethyl)phenyl]methyl]triazol-4-yl]-6′-methyl-spiro[4,5-dihydrothieno[2,3-c]pyran-7,4′-piperidine]-4-ol], 50 to 500 nM. Consider `C[C@H]1C[C@@]2(C[C@@H](c3cn(Cc4ccc(CO)cc4)nn3)N1)OCC(F)(F)c1cc(Cl)sc12` [Compound 225, (4-((4-((2S,4S,6S)-2′-chloro-4′,4′-difluoro-2-methyl-4′,5′-dihydrospiro[piperidine-4,7′-thieno[2,3-c]pyran]-6-yl)-1H-1,2,3-triazol-1-yl)methyl)phenyl)methanol], for which the “Multi-Tox Assay Max Activity (%)” value stood at 97.0% and the IC50 lay in the range of 50 to 500 nM.

Consider `COCC(O)Cn1cc([C@@H]2C[C@]3(C[C@H](C)N2)OC[C@@H](O)c2cc(Cl)sc23)nn1` (stereo partly shown) [Compound 226], for which the “Multi-Tox Assay Max Activity (%)” value amounted to 100.0% and the concentration for half-maximal inhibition (IC50) was 50 to 500 nM.

Turning to `C[C@H]1C[C@@]2(C[C@@H](c3cn(CC4CCCCO4)nn3)N1)OC[C@@H](O)c1cc(Cl)sc12` (stereo partly shown) [Compound 227], the “Multi-Tox Assay Max Activity (%)” value stood at 100.0% and the IC50 lay within 50 to 500 nM. Taken in the same sequence, the figures for `C[C@H]1C[C@@]2(C[C@@H](c3cn(CCCS(C)(=O)=O)nn3)N1)OC[C@@H](O)c1cc(Cl)sc12` [Compound 228] were 100.0% and 50 to 500 nM. For `COCCOCCn1cc([C@@H]2C[C@]3(C[C@H](C)N2)OC[C@@H](O)c2cc(Cl)sc23)nn1` [Compound 229] the same measures were 98.0% and 50 to 500 nM. For `CC(C)C(=O)NCCn1cc([C@@H]2C[C@]3(C[C@H](C)N2)OC[C@@H](O)c2cc(Cl)sc23)nn1` [Compound 230] the same measures were 98.0% and 50 to 500 nM. For the molecule `C[C@H]1C[C@@]2(C[C@@H](c3cn(Cc4ccccc4S(C)(=O)=O)nn3)N1)OC[C@@H](O)c1cc(Cl)sc12` [Compound 231], the “Multi-Tox Assay Max Activity (%)” value is recorded as 95.0% and the IC50 is 50 to 500 nM. Taken in the same sequence, the figures for `C[C@H]1C[C@@]2(C[C@@H](c3cn(Cc4n[nH]c5ccccc45)nn3)N1)OC[C@@H](O)c1cc(Cl)sc12` [Compound 232] were 100.0% and less than 50 nM. `C[C@H]1C[C@@]2(C[C@@H](c3cn(CC4(O)CC4)nn3)N1)OC[C@@H](O)c1cc(Cl)sc12` [Compound 233]: the “Multi-Tox Assay Max Activity (%)” value worked out at 100.0% and the IC50 was 50 to 500 nM.

Consider `C[C@H]1C[C@@]2(C[C@@H](c3cn(Cc4ncnc5[nH]ccc45)nn3)N1)OC[C@@H](O)c1cc(Cl)sc12` [Compound 234], for which the “Multi-Tox Assay Max Activity (%)” value was 100.0% and the IC50 is less than 50 nM.

Consider `Cc1cc(C)nc(CCn2cc([C@@H]3C[C@]4(C[C@H](C)N3)OC[C@@H](O)c3cc(Cl)sc34)nn2)c1` [Compound 235], for which the “Multi-Tox Assay Max Activity (%)” value was 100.0% and the IC50 was less than 50 nM. For `C[C@H]1C[C@@]2(C[C@@H](c3cn(Cc4ccc(C#N)nc4)nn3)N1)OC[C@@H](O)c1cc(Cl)sc12` [Compound 236] the same measures were 100.0% and less than 50 nM. For `Cc1noc(C)c1Cn1cc([C@@H]2C[C@]3(C[C@H](C)N2)OC[C@@H](O)c2cc(Cl)sc23)nn1` [Compound 237] the same measures were 99.0% and less than 50 nM. Regarding `C[C@H]1C[C@@]2(C[C@@H](c3cn(Cc4ccc(S(C)(=O)=O)cc4)nn3)N1)OC[C@@H](O)c1cc(Cl)sc12` [Compound 238], the IC50 was 50 to 500 nM. In the case of `C[C@H]1C[C@@]2(C[C@@H](c3cn(CC(=O)N4CCCCC4)nn3)N1)OC[C@@H](O)c1cc(Cl)sc12` [Compound 239], the “Multi-Tox Assay Max Activity (%)” value came to 97.0% and the IC50 lay in the range of 50 to 500 nM. `C[C@H]1C[C@@]2(C[C@@H](c3cn(CC4(CO)CCOCC4)nn3)N1)OC[C@@H](O)c1cc(Cl)sc12` [Compound 240]: the “Multi-Tox Assay Max Activity (%)” value is recorded as 95.0% and the IC50 fell in the range of 50 to 500 nM. With `C[C@H]1C[C@@]2(C[C@@H](c3cn(CCS(=O)(=O)Nc4ccccc4)nn3)N1)OC[C@@H](O)c1cc(Cl)sc12` [Compound 241], the IC90 lay in the range of 50 to 500 nM, the “Multi-Tox Assay Max Activity (%)” value stood at 97.0% and the half-inhibitory concentration (IC50) was less than 50 nM. Take `C[C@H]1C[C@@]2(C[C@@H](c3cn(CC4(CO)CC4)nn3)N1)OC[C@@H](O)c1cc(Cl)sc12` [Compound 242]: the “Multi-Tox Assay Max Activity (%)” value was 97.0% and the IC50 was in the range of 50 to 500 nM. For `C[C@H]1C[C@@]2(C[C@@H](c3cn(Cc4cnc5cnccn45)nn3)N1)OC[C@@H](O)c1cc(Cl)sc12` [Compound 243] the same measures were 98.0% and 50 to 500 nM.

Consider `C[C@H]1C[C@@]2(C[C@@H](c3cn(CCO)nn3)N1)OC[C@@H](O)c1cc(Cl)sc12` [Compound 244], for which the “Multi-Tox Assay Max Activity (%)” value was 100.0% and the IC50 was 50 to 500 nM. For `COc1ccc(Cn2cc([C@@H]3C[C@]4(C[C@H](C)N3)OC[C@@H](O)c3cc(Cl)sc34)nn2)cc1F` [Compound 245] the same measures were 99.0% and less than 50 nM. Taken in the same sequence, the figures for `C[C@H]1C[C@@]2(C[C@@H](c3cn(C[C@@H](O)CO)nn3)N1)OC[C@@H](O)c1cc(Cl)sc12` [Compound 246] were 97.0% and 50 to 500 nM.

As to `C[C@H]1C[C@@]2(C[C@@H](c3cn(CC(C)(C)O)nn3)N1)OC[C@@H](O)c1cc(Cl)sc12` [Compound 247], the IC50 was in the range of 50 to 500 nM. Same read-out and setting: as for `C[C@H]1C[C@@]2(C[C@@H](c3cn(Cc4cncs4)nn3)N1)OC[C@@H](O)c1cc(Cl)sc12` [Compound 248], the figure is less than 50 nM.

In the case of `C[C@H]1C[C@@]2(C[C@@H](c3cn(Cc4ccc5nc(O)[nH]c5c4)nn3)N1)OC[C@@H](O)c1cc(Cl)sc12` [Compound 249], the “Multi-Tox Assay Max Activity (%)” value was found to be 92.0% and the IC50 is 50 to 500 nM. Taken in the same sequence, the figures for `C[C@H]1C[C@@]2(C[C@@H](c3cn(CC4CCC4)nn3)N1)OC[C@@H](O)c1cc(Cl)sc12` [Compound 250] were 95.0% and less than 50 nM. Taken in the same sequence, the figures for `Cc1nccn1CCCn1cc([C@@H]2C[C@]3(C[C@H](C)N2)OC[C@@H](O)c2cc(Cl)sc23)nn1` [Compound 251] were 99.0% and 50 to 500 nM.

On to `C[C@H]1C[C@@]2(C[C@@H](c3cn(CCC(C)(C)O)nn3)N1)OC[C@@H](O)c1cc(Cl)sc12` [Compound 252], for which the “Multi-Tox Assay Max Activity (%)” value stood at 100.0% and the IC50 was less than 50 nM. For `C[C@H]1C[C@@]2(C[C@@H](c3cn(Cc4ccc(C#N)cc4)nn3)N1)OC[C@@H](O)c1cc(Cl)sc12` [Compound 253] the same measures were 100.0% and less than 50 nM. On to `C[C@H]1C[C@@]2(C[C@@H](c3cn(CC4CCC(=O)NC4)nn3)N1)OC[C@@H](O)c1cc(Cl)sc12` (stereo partly shown) [Compound 254], for which the “Multi-Tox Assay Max Activity (%)” value was 92.0% and the 50% inhibitory concentration (IC50) was more than 500 nM. Taken in the same sequence, the figures for `C[C@H]1C[C@@]2(C[C@@H](c3cn(CC#N)nn3)N1)OC[C@@H](O)c1cc(Cl)sc12` [Compound 255] were 100.0% and 50 to 500 nM. Taken in the same sequence, the figures for `CC(CO)Cn1cc([C@@H]2C[C@]3(C[C@H](C)N2)OC[C@@H](O)c2cc(Cl)sc23)nn1` (stereo partly shown) [Compound 256] were 96.0% and 50 to 500 nM.

On to `CCOCCn1cc([C@@H]2C[C@]3(C[C@H](C)N2)OC[C@@H](O)c2cc(Cl)sc23)nn1` [Compound 257], for which the IC50 was less than 50 nM. In the case of `CNC(=O)C(C)Cn1cc([C@@H]2C[C@]3(C[C@H](C)N2)OC[C@@H](O)c2cc(Cl)sc23)nn1` (stereo partly shown) [Compound 258], the “Multi-Tox Assay Max Activity (%)” value is listed as 98.0% and the IC50 was 50 to 500 nM. Taken in the same sequence, the figures for `C[C@H]1C[C@@]2(C[C@@H](c3cn(Cc4ccc(O)cc4)nn3)N1)OC[C@@H](O)c1cc(Cl)sc12` [Compound 259] were 100.0% and 50 to 500 nM.

Regarding `Cc1cccc(OCC(O)Cn2cc([C@@H]3C[C@]4(C[C@H](C)N3)OC[C@@H](O)c3cc(Cl)sc34)nn2)c1` (stereo partly shown) [Compound 260], the “Multi-Tox Assay Max Activity (%)” value is listed as 99.0% and the IC50 was less than 50 nM.

What is called IC90 is the concentration needed for an effect of 90%. Lower therefore signals greater potency. The term IC50 denotes the concentration that gives 50% inhibition. A higher IC50 goes with lower potency.
